Measurements reported in patent publication US20240425891A1, “Host cells and methods for improved polyketide production using methylmalonyl-CoA-dependent polyketide synthase (PKS)” (THE REGENTS OF THE UNIVERSITY OF CALIFORNIA, priority 2023, published 2024).

Tests used:
C. glutamicum Cz034 = experiment: Propionate tolerance of Cz034 in CGXII minimal medium (growth curve); format: cell-based, Corynebacterium glutamicum
Method: Propionate tolerance was first evaluated using Cz034 in CGXII minimal medium to evaluate the highest propionate concentration for ALE. The lag phase increased as the propionate concentration increased, and no growth was observed when the propionate concentration was over 8,000 mg/L (Extended Data FIG. S11a, b). Then, ALE was applied to improve propionate tolerance and germicidin production in Cz12 by repeatedly growing the strains in increasing concentrations of propionate until we reached 8,000 mg/L (Extended Data FIG. S12). After two months of evolution, 563 single colonies were picked up from plates. Most of them grew faster than the initial strain (Extended Data FIG. S13a, b, c, d). […] To clarify whether the increased germicidin production improved methylmalonyl-CoA utilization, germicidin titer was measured on evolved strains.
Colony PCR. Pick up colonies from plate and cultivate in BHI medium (30° C., 200 rpm) overnight (around 14-16 h). Prepare digestion solution (120 μL zymolase (E1005, ZYMO RESEARCH) and 2500 μL PBS pH=7.2) for 96 reactions. Take 3-5 μL overnight culture into 20 μL digestion solution, 30° C. for 1 h. Add 3-5 μL dimethyl sulfoxide (DMSO), then 98° C. for 10 min. Take 2 μL for 50 μL PCR reaction. Growth curve measurement. Various cells were pre-cultivated in BHI liquid medium (30° C., 200 rpm) overnight. […] Growth curve was measured by SpectraMaX M2e at 30° C.

hexokinase (HK2) = target: T1, hexokinase (HK2) (Homo sapiens, UniProt P52789); conditions: literature reference 36; cited from earlier work
T1 sequence (P52789 1-917): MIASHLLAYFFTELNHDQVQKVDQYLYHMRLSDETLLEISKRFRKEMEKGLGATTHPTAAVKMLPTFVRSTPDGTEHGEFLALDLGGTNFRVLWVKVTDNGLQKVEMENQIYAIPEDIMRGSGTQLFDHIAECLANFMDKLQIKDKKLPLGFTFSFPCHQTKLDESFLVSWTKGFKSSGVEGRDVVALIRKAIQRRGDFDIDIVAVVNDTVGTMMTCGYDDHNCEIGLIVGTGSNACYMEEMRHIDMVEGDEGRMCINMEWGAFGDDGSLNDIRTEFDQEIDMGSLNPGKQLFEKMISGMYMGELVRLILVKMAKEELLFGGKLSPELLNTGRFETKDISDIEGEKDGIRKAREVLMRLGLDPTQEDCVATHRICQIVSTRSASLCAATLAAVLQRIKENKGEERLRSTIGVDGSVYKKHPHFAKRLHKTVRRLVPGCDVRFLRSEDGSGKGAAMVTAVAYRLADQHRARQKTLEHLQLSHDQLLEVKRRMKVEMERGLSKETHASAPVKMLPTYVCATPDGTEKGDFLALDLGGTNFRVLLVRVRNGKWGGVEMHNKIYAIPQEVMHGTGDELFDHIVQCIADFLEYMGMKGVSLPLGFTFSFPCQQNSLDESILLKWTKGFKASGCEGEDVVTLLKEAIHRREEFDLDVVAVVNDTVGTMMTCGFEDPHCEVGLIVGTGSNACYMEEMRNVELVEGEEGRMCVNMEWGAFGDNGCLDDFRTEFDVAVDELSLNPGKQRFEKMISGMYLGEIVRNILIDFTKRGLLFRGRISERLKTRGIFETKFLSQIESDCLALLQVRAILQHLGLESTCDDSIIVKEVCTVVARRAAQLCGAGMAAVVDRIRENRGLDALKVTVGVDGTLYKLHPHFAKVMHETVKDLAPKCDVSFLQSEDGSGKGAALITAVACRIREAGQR

| Compound | propionate concentration above which no growth was observed (C. glutamicum Cz034) | IC50 on hexokinase (HK2) (hexokinase (HK2)) |
| --- | --- | --- |
| CCC(=O)O [propionate] | over 8,000 mg/L | – |
| germicidin | – | 780 µg/mL |
